Laboratory results taken from ChEMBL document CHEMBL1151840, “Synthetic oligoribonucleotides containing arabinonucleotides act as agonists of TLR7 and 8” (Bioorg Med Chem Lett, 2009).
The source made the active and inactive calls. The calls are words filed in the database; no cut-off is given here.

Experiments:
[1] = Stability in human serum assessed as full-length compound remaining after 10 mins by anion-exchange HPLC; assay type: ADME, cell-free; conditions: read-out: Stability
[2] = target: T1, Toll-like receptor 8 (Homo sapiens) (UniProt Q9NR97); experiment: Agonist activity at human TLR8 expressed in HEK293XL cells assessed as NF-kappaB activation after 18 hrs; assay type: functional, cell-based
T1 sequence (whole entry): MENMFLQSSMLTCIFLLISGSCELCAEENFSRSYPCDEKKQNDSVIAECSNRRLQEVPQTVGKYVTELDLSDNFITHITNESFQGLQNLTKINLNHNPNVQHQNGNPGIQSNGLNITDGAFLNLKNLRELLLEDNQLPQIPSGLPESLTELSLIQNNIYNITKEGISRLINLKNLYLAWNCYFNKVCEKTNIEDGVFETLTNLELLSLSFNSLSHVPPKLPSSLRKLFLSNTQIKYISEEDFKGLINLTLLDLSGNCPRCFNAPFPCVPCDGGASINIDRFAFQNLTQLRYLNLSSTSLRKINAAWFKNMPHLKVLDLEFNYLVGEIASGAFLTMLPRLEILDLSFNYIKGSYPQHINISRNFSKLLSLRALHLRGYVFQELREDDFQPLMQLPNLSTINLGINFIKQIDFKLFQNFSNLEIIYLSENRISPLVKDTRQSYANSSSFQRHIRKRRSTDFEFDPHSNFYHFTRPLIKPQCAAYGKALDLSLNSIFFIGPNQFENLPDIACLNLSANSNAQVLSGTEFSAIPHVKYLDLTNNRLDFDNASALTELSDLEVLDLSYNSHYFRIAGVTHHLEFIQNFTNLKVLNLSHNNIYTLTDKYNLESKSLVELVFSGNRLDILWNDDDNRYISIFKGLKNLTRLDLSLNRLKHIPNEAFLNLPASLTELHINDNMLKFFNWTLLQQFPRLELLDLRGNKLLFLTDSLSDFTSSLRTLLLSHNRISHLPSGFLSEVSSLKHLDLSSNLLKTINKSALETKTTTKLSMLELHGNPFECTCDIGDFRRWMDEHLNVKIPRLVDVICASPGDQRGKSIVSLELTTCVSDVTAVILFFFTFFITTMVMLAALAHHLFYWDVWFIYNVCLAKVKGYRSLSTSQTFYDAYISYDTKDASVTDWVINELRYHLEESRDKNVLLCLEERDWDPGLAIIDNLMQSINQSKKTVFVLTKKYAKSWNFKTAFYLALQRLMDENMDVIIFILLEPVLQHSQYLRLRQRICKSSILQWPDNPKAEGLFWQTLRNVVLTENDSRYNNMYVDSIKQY

[3] = target: T2, Toll-like receptor 7 (Homo sapiens) (UniProt Q9NYK1); experiment: Agonist activity at human TLR7 expressed in HEK293XL cells assessed as NF-kappaB activation at 300 ug/ml after 18 hrs; assay type: functional, cell-based
T2 sequence (whole entry): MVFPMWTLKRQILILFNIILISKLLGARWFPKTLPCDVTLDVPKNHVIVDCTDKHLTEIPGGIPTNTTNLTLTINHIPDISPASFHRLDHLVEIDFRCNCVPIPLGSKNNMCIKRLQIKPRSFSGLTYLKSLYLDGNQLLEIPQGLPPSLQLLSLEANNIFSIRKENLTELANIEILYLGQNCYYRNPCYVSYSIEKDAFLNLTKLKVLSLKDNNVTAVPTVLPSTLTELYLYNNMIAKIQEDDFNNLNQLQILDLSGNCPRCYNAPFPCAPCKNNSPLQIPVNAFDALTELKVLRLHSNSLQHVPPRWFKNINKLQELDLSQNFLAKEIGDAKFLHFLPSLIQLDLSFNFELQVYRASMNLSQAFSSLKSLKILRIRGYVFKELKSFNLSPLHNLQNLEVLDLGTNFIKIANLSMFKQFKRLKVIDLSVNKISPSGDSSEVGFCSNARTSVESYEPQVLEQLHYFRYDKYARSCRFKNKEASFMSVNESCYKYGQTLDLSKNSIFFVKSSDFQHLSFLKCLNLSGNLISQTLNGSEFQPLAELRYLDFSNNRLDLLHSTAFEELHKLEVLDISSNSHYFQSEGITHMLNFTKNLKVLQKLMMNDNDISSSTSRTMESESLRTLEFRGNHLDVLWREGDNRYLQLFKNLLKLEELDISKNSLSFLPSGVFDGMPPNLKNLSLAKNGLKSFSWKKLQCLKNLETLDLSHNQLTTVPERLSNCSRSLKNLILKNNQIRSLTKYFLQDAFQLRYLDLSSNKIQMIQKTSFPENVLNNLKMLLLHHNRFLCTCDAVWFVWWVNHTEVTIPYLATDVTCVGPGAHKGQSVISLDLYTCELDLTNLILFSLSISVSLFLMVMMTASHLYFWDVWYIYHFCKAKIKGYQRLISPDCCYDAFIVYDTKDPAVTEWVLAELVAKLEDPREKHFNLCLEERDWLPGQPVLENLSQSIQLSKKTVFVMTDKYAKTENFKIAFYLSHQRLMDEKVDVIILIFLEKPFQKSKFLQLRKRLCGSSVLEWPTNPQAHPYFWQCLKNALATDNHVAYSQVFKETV

[4] = tested on: PBMC; experiment: Stimulation of immune response in human PBMC assessed as induction of IL1-beta production at 150 ug/ml after 24 hrs; assay type: functional, cell-based
[5] = tested on: PBMC; experiment: Stimulation of immune response in human PBMC assessed as induction of IL2R level at 150 ug/ml after 24 hrs; assay type: functional, cell-based
[6] = tested on: PBMC; experiment: Stimulation of immune response in human PBMC assessed as induction of IL8 production at 150 ug/ml after 24 hrs; assay type: functional, cell-based
[7] = tested on: PBMC; experiment: Stimulation of immune response in human PBMC assessed as induction of IL10 production at 150 ug/ml after 24 hrs; assay type: functional, cell-based
[8] = tested on: PBMC; experiment: Stimulation of immune response in human PBMC assessed as induction of IL12 production at 150 ug/ml after 24 hrs; assay type: functional, cell-based
[9] = tested on: PBMC; experiment: Stimulation of immune response in human PBMC assessed as induction of IFNalpha production at 150 ug/ml after 24 hrs; assay type: functional, cell-based
[10] = tested on: PBMC; experiment: Stimulation of immune response in human PBMC assessed as induction of IFN-gamma production at 150 ug/ml after 24 hrs; assay type: functional, cell-based
[11] = tested on: PBMC; experiment: Stimulation of immune response in human PBMC assessed as induction of MCP1 production at 150 ug/ml after 24 hrs; assay type: functional, cell-based
[12] = tested on: PBMC; experiment: Stimulation of immune response in human PBMC assessed as induction of RANTES production at 150 ug/ml after 24 hrs; assay type: functional, cell-based
[13] = tested on: PBMC; experiment: Stimulation of immune response in human PBMC assessed as induction of MIP1alpha production at 150 ug/ml after 24 hrs; assay type: functional, cell-based
[14] = tested on: PBMC; experiment: Stimulation of immune response in human PBMC assessed as induction of MIP1beta production at 150 ug/ml after 24 hrs; assay type: functional, cell-based
[15] = tested on: PBMC; experiment: Stimulation of immune response in human PBMC assessed as induction of TNFalpha production at 150 ug/ml after 24 hrs; assay type: functional, cell-based
[16] = species on record: Homo sapiens; experiment: Stimulation of immune response in human pDC assessed as induction of IFN-gamma production at 150 ug/ml after 24 hrs; assay type: functional
[17] = species on record: Homo sapiens; experiment: Stimulation of immune response in human pDC assessed as induction of IFNalpha production at 150 ug/ml after 24 hrs; assay type: functional
[18] = species on record: Homo sapiens; experiment: Stimulation of immune response in human pDC assessed as induction of IL12 production at 150 ug/ml after 24 hrs; assay type: functional
[19] = species on record: Homo sapiens; experiment: Stimulation of immune response in human pDC assessed as induction of TNFalpha production at 150 ug/ml after 24 hrs; assay type: functional
[20] = species on record: Homo sapiens; experiment: Stimulation of immune response in human pDC assessed as induction of MIP1alpha production at 150 ug/ml after 24 hrs; assay type: functional
[21] = species on record: Homo sapiens; experiment: Stimulation of immune response in human pDC assessed as induction of MIP1beta production at 150 ug/ml after 24 hrs; assay type: functional
[22] = tested on: Mus musculus; experiment: Stimulation of immune response in C57BL/6 mouse assessed as induction of serum IL12 production at 50 mg/kg, sc after 2 hrs by luminex multiplex assay; assay type: functional, organism-based; set-up: dose 50 mg/kg

Nc1ccn([C@@H]2O[C@H](COP(=O)(S)O[C@H]3[C@@H](O)[C@H](n4ccc(=O)[nH]c4=O)O[C@@H]3COP(=O)(S)O[C@H]3[C@@H](O)[C@H](n4ccc(=O)[nH]c4=O)O[C@@H]3COP(=O)(S)O[C@H]3[C@@H](O)[C@H](n4cnc5c(=O)[nH]c(N)nc54)O[C@@H]3COP(=O)(S)O[C@H]3[C@@H](O)[C@H](n4ccc(=O)[nH]c4=O)O[C@@H]3COP(=O)(S)O[C@H]3[C@@H](O)[C@H](n4cnc5c(=O)[nH]c(N)nc54)O[C@@H]3COP(=O)(S)OCC(O)COP(=O)(S)O[C@H]3[C@@H](O)[C@H](n4cnc5c(=O)[nH]c(N)nc54)O[C@@H]3COP(=O)(S)O[C@H]3[C@@H](O)[C@H](n4ccc(=O)[nH]c4=O)O[C@@H]3COP(=O)(S)O[C@H]3[C@@H](O)[C@H](n4cnc5c(=O)[nH]c(N)nc54)O[C@@H]3COP(=O)(S)O[C@H]3[C@@H](O)[C@H](n4ccc(=O)[nH]c4=O)O[C@@H]3COP(=O)(S)O[C@H]3[C@@H](O)[C@H](n4ccc(=O)[nH]c4=O)O[C@@H]3COP(=O)(S)O[C@H]3[C@@H](O)[C@H](n4ccc(N)nc4=O)O[C@@H]3COP(=O)(S)O[C@H]3[C@@H](O)[C@H](n4cnc5c(=O)[nH]c(N)nc54)O[C@@H]3COP(=O)(S)O[C@H]3[C@H](O)[C@H](n4ccc(=O)[nH]c4=O)O[C@@H]3COP(=O)(S)O[C@H]3[C@@H](O)[C@H](n4ccc(N)nc4=O)O[C@@H]3COP(=O)(S)O[C@H]3[C@@H](O)[C@H](n4cnc5c(=O)[nH]c(N)nc54)O[C@@H]3COP(=O)(S)O[C@H]3[C@H](O)[C@H](n4ccc(=O)[nH]c4=O)O[C@@H]3CO)[C@@H](OP(=O)(S)OC[C@H]3O[C@@H](n4cnc5c(=O)[nH]c(N)nc54)[C@H](O)[C@@H]3OP(=O)(S)OC[C@H]3O[C@@H](n4ccc(=O)[nH]c4=O)[C@@H](O)[C@@H]3OP(=O)(S)OC[C@H]3O[C@@H](n4ccc(N)nc4=O)[C@H](O)[C@@H]3OP(=O)(S)OC[C@H]3O[C@@H](n4cnc5c(=O)[nH]c(N)nc54)[C@H](O)[C@@H]3OP(=O)(S)OC[C@H]3O[C@@H](n4ccc(=O)[nH]c4=O)[C@@H](O)[C@@H]3OP(=O)(O)S)[C@H]2O)c(=O)n1 (some centres not stated)
remaining at 10 min [1]: 76% | Activity [2]: Dose-dependent effect | Activity [3]: inactive | Activity [4]: Active | Activity [5]: Active | Activity [6]: Active | Activity [7]: Active | Activity [8]: Active | Activity [9]: Active | Activity [10]: Active | Activity [11]: Active | Activity [12]: Active | Activity [13]: Active | Activity [14]: Active | Activity [15]: Active | Activity [16]: Active | Activity [17]: inactive | Activity [18]: Active | Activity [19]: Active | Activity [20]: Active | Activity [21]: Active | Activity [22]: inactive
